{"source": "patent US11680047B2", "about": "“Enhanced erythropoiesis and iron metabolism” (FibroGen, Inc., priority 2003, dated 2023)", "key": {"Hepcidin": {"test_system": "Hepcidin", "assay": "Hepcidin mRNA expression in mouse liver (microarray)", "format": "in vivo", "experimental": "(§1) Compounds were generally administered orally by gavage or IV administration. Animals treated by oral gavage received a 4-10 ml/kg volume of either 0.5% carboxymethyl cellulose (CMC; Sigma-Aldrich, St. Louis Mo.) with or without 0.1% Polysorbate 80 (0 mg/kg/day) or varying doses of a compound of the present invention (e.g., a HIF prolyl hydroxylase inhibitor) in 0.5% CMC, with or without 0.1% Polysorbate 80, using various dosing regimens. Blood samples were collected at appropriate intervals during treatment from, e.g., tail vein (rats), or abdominal vein or cardiocentesis (mice or rats). Generally, animals were anesthetized with isoflurane and blood samples were collected into MICROTAINER serum separator tubes (Becton-Dickinson, Franklin Lakes N.J.). For measurement of serum components, the tubes were incubated at room temperature for 30 minutes, and then centrifuged at 8,000 rpm at 4° C. for 10 minutes. The serum fraction was then processed and analyzed for the presence of specific components, e.g., serum iron (assay performed by Quality Clinical Labs, Mountain View, Calif.). For determination of hematocrit, blood samples were collected into MICROTAINER EDTA-2K tubes (Becton-Dickinson); EDTA-blood was then drawn into 75 mm×1.1-1.2 mm I.D. capillary tubes (Chase Scientific Glass, Inc., Rockwood Tenn.) to approximately % length, one end of the tube was sealed with CRITOSEAL sealant (Sherwood Medical Company), and the tubes were centrifuged in a J-503M MICROHEMATOCRIT centrifuge (Jorgensen Laboratories, Inc., Loveland Colo.) at 12,000 rpm for 5 minutes. Hematocrit was read against a reader card. When indicated, complete blood count (CBC) analysis, including blood hemoglobin level, reticulocyte number, and hematocrit, was performed by Quality Clinical Labs (Mountain View, Calif.).\nSwiss Webster male mice were treated as described above with a single dose of 0.5% CMC (Sigma-Aldrich) (0 mg/kg) or 100 mg/kg compound A. At 4, 8, 16, 24, 48, or 72 hours post-administration, animals were anesthetized, sacrificed, and tissue samples of kidney, liver, brain, lung, and heart were isolated and stored in RNALATER solution (Ambion) at −80° C. Alternatively, animals were treated to 4 consecutive daily doses of 0.5% CMC (0 mg/kg/day), 7.5 mg/ml compound A in 0.5% CMC (30 mg/kg/day), or 25 mg/ml compound A in 0.5% CMC (100 mg/kg/day). Four hours after administration of the final dose, animals were anesthetized, sacrificed, and approximately 150 mg of liver and each kidney were isolated and stored in RNALATER solution (Ambion) at −20° C.\nRNA isolation was carried out using the following protocol. A section of each organ was diced, 875 μl of RLT buffer (RNEASY kit; Qiagen Inc., Valencia Calif.) was added, and the pieces were homogenized for about 20 seconds using a rotor-stator POLYTRON homogenizer (Kinematica, Inc., Cincinnati Ohio). The homogenate was micro-centrifuged for 3 minutes to pellet insoluble material, the supernatant was transferred to a new tube and RNA was isolated using an RNEASY kit (Qiagen) according to the manufacturer's instructions. The RNA was eluted into 80 μL of water and quantitated with RIBOGREEN reagent (Molecular Probes, Eugene Oreg.). The absorbance at 260 and 280 nm was measured to determine RNA purity and concentration.\nAlternatively, tissue samples were diced and homogenized in TRIZOL reagent (Invitrogen Life Technologies, Carlsbad Calif.) using a rotor-stator POLYTRON homogenizer (Kinematica). Homogenates were brought to room temperature, 0.2 volumes chloroform was added, and samples were mixed vigorously. Mixtures were incubated at room temperature for several minutes and then were centrifuged at 12,000 g for 15 min at 4° C. The aqueous phase was collected and 0.5 volumes of isopropanol were added. Samples were mixed, incubated at room temperature for 10 minutes, and centrifuged for 10 min at 12,000 g at 4° C. […]"}, "healthy human volunteers": {"test_system": "healthy human volunteers", "assay": "Erythropoiesis and iron status in healthy human volunteers", "format": "in vivo", "settings": "human subjects; for soluble transferrin receptor levels, maximum response: day 21", "from_the_text": "The effect of prolyl hydroxylase inhibition on erythropoiesis in human subjects was examined as follows. […] At various times following compound administration, blood was drawn for analysis of EPO, hemoglobin, hematocrit, red blood cell counts, soluble transferrin receptor, and serum ferritin levels."}, "[1]": {"assay": "Total serum iron levels in rats treated twice weekly for 93 days", "format": "in vivo, rat", "experimental": "as §1\nMale and female rats were treated twice weekly (Monday and Thursday) with various concentrations (0, 20, 60, or 150 mg/kg) of compound A for 93 days. Total serum iron levels were determined."}, "sproutin": {"test_system": "sproutin", "assay": "Intestinal sproutin mRNA in rats of ACD Series 2 (microarray)", "format": "in vivo, rat", "experimental": "At week 6 following administration of compound A in anemic animals (40 mg/kg, twice a week), microarray analysis was performed to examine expression of genes encoding proteins involved with iron transport and absorption in intestine. Microarray analysis was performed using methods described above, using The Rat Genome 230A array (Affymetirx), which represents all sequence in the Rat Unigene database build 99 (National Center for Biotechnology Information, Bethesda, Md.), including approximately 4,699 well-characterized rat genes and approximately 10,467 EST sequences and approximately 700 non-EST sequences."}, "E-selectin": {"test_system": "E-selectin", "assay": "TNF-α induced E-selectin expression in HUVEC", "format": "cell-based, human", "settings": "1 ng/ml TNF-α, various concentrations, 1 day", "from_the_text": "Endothelial E-selectin belongs to the selectin family of cellular adhesion molecules mediating the initial attachment of leukocytes to vascular endothelial cells in inflammatory events. IL-1β, TNF-α, and lipopolysaccharides each induce the expression of E-selectin. (See, e.g., Bevilacqua et al. (1987) Proc Natl Acad Sci USA 84:9238-9242 and Bevilacqua and van Furth (1993) J Leukoc Biol 54:363-378.) To investigate the effect of HIF prolyl hydroxylase inhibition on TNF-α induced E-selectin expression, HUVECs were stimulated with 1 ng/ml TNF-α in the absence or presence of various concentrations of compound B or compound C for 1 day. E-selectin and VCAM expression were then measured."}, "VCAM-1": {"test_system": "VCAM-1", "assay": "IL-1β induced VCAM-1 expression in HUVEC", "format": "cell-based, human", "settings": "IL-1β 1 ng/ml, 1 day", "experimental": "To investigate the effect of HIF prolyl hydroxylase inhibition on IL-1β induced VCAM-1 expression, HUVEC (human umbilical vein endothelial cells) were stimulated with IL-1β in the absence or presence of various concentrations of compound B or compound C for 1 day. VCAM expression was then measured."}}, "note": "Marks after values point to notes of the source that are not given here."}
{"smiles": "O=C(O)CNC(=O)c1nc(Cl)c2ccccc2c1O", "note": "[Compound A, [(1-Chloro-4-hydroxy-isoquinoline-3-carbonyl)-amino]-acetic acid]", "values": [{"measurement": "Hepcidin (relative mRNA levels)", "setting": "Hepcidin; animal study I, multi high dose", "value": 0.275}, {"measurement": "Hepcidin (relative mRNA levels)", "setting": "Hepcidin; animal study II, multi high dose", "value": 0.703}, {"measurement": "Hepcidin (relative mRNA levels)", "setting": "Hepcidin; animal study II, multi low dose", "value": 0.129}, {"measurement": "Hepcidin (relative mRNA levels)", "setting": "Hepcidin; animal study III, 4 hour", "value": 0.672}, {"measurement": "Hepcidin (relative mRNA levels)", "setting": "Hepcidin; animal study III, 8 hour", "value": 0.305}, {"measurement": "Hepcidin (relative mRNA levels)", "setting": "Hepcidin; animal study III, 16 hour", "value": 0.119}, {"measurement": "red blood cell count", "setting": "healthy human volunteers; 20 mg/kg twice weekly or three-times per week", "value": "increased red blood cell count in human subjects"}, {"measurement": "soluble transferrin receptor levels, maximum response", "setting": "healthy human volunteers; 2-times per week", "value": 35, "unit": "%"}, {"measurement": "soluble transferrin receptor levels, maximum response", "setting": "healthy human volunteers; 3-times per week", "value": 31, "unit": "%"}, {"measurement": "decrease of serum ferritin levels", "setting": "healthy human volunteers; oral 20 mg/kg", "value": "approximately 46%"}, {"measurement": "Reticulocyte levels", "setting": "healthy human volunteers; oral 20 mg/kg twice or three-times weekly", "value": "> 1.7 % of red blood cells"}, {"measurement": "hematocrit levels", "setting": "healthy human volunteers; twice weekly for three weeks", "value": "greater than 46%"}, {"measurement": "Serum Iron Female Rats (Mean +/− SD)", "setting": "[1]; 20 mg/kg twice weekly", "value": "505 +/− 41 * µg/dL"}, {"measurement": "Serum Iron Female Rats (Mean +/− SD)", "setting": "[1]; 60 mg/kg twice weekly", "value": "445 +/− 46 * µg/dL"}, {"measurement": "Serum Iron Female Rats (Mean +/− SD)", "setting": "[1]; 150 mg/kg twice weekly", "value": "399 ± 117", "unit": "µg/dL"}, {"measurement": "Serum Iron Male Rats (Mean +/− SD)", "setting": "[1]; 20 mg/kg twice weekly", "value": "198 ± 64", "unit": "µg/dL"}, {"measurement": "Serum Iron Male Rats (Mean +/− SD)", "setting": "[1]; 60 mg/kg twice weekly", "value": "357 +/− 111 * µg/dL"}, {"measurement": "Serum Iron Male Rats (Mean +/− SD)", "setting": "[1]; 150 mg/kg twice weekly", "value": "307 +/− 142 * µg/dL"}, {"measurement": "intestinal expression of sproutin", "setting": "sproutin; anemic rats, 40 mg/kg twice a week, week 6", "value": "increased expression of both NRAMP2 and sproutin in intestine"}, {"measurement": "intestinal expression of mRNA for sproutin", "setting": "sproutin; control rats", "value": "increased intestinal expression"}]}
{"smiles": "O=C(O)CNC(=O)c1ncc2cc(Oc3ccccc3)ccc2c1O", "note": "[Compound B, [(4-Hydroxy-7-phenoxy-isoquinoline-3-carbonyl)-amino]-acetic acid]", "values": [{"measurement": "inhibition of TNF-α induced E-selectin expression", "setting": "E-selectin", "value": "dose-dependent inhibition of TNF-α induced VCAM and E-selectin expression"}, {"measurement": "inhibition of IL-1β induced VCAM-1 expression", "setting": "VCAM-1", "value": "does-dependent inhibition of IL-1β induced VCAM-1 expression"}]}
